Experimental findings from ChEMBL document CHEMBL5241118, “4-Aminopyrazolopyrimidine scaffold and its deformation in the design of tyrosine and serine/threonine kinase inhibitors in medicinal chemistry” (RSC Med Chem, 2022) are described below.

Molecules are shown by their SMILES. pIC50, pKd, pKi: −log10 of the molar value. Values joined by “and” are separate entries in the source; they are usually repeats but may differ in a detail not shown here. Equal entries are not always repeated. Some results are limits rather than exact numbers.

Assay [1] deals with Epidermal growth factor receptor (Homo sapiens, UniProt P00533). Nature of the assay: Inhibition of human recombinant His-tagged EGFR expressed in baculovirus using poly-Gluo-Tyr as a substrate measured after 24 hrs by western blot analysis. For orientation: Immunoblotting shows a protein as a band on a membrane.
In assay [2] the target is T1, Proto-oncogene tyrosine-protein kinase Src (Homo sapiens, UniProt P12931). Nature of the assay: Inhibition of Src kinase (unknown origin) phosphorylation at Tyr416/419 residues incubated for 24 hrs by Western blot analysis.
Assay [3] concerns the target T2, Tyrosine-protein kinase Lck (Homo sapiens, UniProt P06239). Nature of the assay: Inhibition of His-tagged LCK (62 to 509 residues) (unknown origin) expressed in Sf9 insect cells at 10 uM using poly (Glu, Tyr) 4:1 as substrate incubated for 1 hr by spectrometric analysis.
Assay [4] has as its target Tyrosine-protein kinase Lyn (Homo sapiens, UniProt P07948). Nature of the assay: Inhibition of LYN (unknown origin).
Assay [5] deals with T2, Tyrosine-protein kinase Lck. Nature of the assay: Binding affinity to LCK (unknown origin) assessed as dissociation constant.
Assay [6] concerns the target Tyrosine-protein kinase Fgr (Homo sapiens, UniProt P09769). Nature of the assay: Binding affinity to FGR (unknown origin) assessed as dissociation constant.
Assay [7] addresses Tyrosine-protein kinase Yes (Homo sapiens, UniProt P07947). Nature of the assay: Binding affinity to YES (unknown origin) assessed as dissociation constant.
The target of assay [8] is T1, Proto-oncogene tyrosine-protein kinase Src. Nature of the assay: Binding affinity to c-Src (unknown origin) assessed as inhibition constant.
Target sequence in this assay (P12931 whole entry, looked up, the tested form may be a part): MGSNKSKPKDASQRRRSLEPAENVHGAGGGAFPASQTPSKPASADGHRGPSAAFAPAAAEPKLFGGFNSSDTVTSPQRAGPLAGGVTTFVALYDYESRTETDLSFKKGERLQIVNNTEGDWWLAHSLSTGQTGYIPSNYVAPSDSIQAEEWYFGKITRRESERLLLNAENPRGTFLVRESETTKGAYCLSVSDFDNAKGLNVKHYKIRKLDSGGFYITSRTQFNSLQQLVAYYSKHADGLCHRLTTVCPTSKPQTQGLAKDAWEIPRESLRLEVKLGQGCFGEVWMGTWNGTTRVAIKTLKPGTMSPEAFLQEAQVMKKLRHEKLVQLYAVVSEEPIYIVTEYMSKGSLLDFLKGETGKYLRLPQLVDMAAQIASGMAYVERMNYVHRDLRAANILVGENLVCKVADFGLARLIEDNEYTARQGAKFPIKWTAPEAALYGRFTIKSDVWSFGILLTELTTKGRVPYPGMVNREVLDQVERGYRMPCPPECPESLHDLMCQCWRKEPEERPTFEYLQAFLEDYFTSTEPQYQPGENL
Assay [9] addresses Phosphatidylinositol 4,5-bisphosphate 3-kinase catalytic subunit alpha isoform (Homo sapiens, UniProt P42336). Nature of the assay: Binding affinity to PI3Kalpha (unknown origin) assessed as dissociation constant.
For assay [10], the target named is Phosphatidylinositol 4,5-bisphosphate 3-kinase catalytic subunit beta isoform (Homo sapiens, UniProt P42338). Nature of the assay: Binding affinity to PI3Kbeta (unknown origin) assessed as dissociation constant.
Phosphatidylinositol 4,5-bisphosphate 3-kinase catalytic subunit beta isoform, sequence (P42338 whole entry, canonical isoform): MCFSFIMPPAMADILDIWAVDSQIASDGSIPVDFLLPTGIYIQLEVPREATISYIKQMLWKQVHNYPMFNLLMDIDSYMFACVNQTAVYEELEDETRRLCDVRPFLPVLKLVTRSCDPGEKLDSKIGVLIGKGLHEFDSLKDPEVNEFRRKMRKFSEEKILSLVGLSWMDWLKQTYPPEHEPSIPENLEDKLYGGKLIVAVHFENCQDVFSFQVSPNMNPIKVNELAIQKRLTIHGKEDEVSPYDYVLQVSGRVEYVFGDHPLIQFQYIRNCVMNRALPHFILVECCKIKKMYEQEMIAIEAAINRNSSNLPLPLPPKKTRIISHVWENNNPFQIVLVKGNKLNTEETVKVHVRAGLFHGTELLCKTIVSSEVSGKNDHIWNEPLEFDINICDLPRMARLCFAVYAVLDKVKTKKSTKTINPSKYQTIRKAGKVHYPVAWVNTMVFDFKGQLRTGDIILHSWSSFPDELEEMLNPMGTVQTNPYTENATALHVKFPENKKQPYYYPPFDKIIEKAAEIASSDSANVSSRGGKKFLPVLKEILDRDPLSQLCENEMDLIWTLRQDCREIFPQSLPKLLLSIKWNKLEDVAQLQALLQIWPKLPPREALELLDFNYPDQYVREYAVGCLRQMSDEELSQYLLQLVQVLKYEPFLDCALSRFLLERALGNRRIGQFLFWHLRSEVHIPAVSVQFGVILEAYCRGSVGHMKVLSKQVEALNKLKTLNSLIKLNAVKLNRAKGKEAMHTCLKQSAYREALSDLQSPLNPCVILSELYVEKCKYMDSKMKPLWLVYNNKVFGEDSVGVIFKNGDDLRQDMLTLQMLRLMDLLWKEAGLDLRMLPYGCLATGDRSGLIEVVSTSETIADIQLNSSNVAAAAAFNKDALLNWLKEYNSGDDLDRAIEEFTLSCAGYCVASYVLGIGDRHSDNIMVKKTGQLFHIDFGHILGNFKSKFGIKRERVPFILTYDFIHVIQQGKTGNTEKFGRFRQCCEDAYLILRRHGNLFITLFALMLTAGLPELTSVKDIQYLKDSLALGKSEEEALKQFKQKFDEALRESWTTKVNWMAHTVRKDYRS
Assay [11] deals with Phosphatidylinositol 4,5-bisphosphate 3-kinase catalytic subunit gamma isoform (Homo sapiens, UniProt P48736). Nature of the assay: Binding affinity to PI3Kgamma (unknown origin) assessed as dissociation constant.
Phosphatidylinositol 4,5-bisphosphate 3-kinase catalytic subunit gamma isoform, sequence (P48736 whole entry, canonical isoform): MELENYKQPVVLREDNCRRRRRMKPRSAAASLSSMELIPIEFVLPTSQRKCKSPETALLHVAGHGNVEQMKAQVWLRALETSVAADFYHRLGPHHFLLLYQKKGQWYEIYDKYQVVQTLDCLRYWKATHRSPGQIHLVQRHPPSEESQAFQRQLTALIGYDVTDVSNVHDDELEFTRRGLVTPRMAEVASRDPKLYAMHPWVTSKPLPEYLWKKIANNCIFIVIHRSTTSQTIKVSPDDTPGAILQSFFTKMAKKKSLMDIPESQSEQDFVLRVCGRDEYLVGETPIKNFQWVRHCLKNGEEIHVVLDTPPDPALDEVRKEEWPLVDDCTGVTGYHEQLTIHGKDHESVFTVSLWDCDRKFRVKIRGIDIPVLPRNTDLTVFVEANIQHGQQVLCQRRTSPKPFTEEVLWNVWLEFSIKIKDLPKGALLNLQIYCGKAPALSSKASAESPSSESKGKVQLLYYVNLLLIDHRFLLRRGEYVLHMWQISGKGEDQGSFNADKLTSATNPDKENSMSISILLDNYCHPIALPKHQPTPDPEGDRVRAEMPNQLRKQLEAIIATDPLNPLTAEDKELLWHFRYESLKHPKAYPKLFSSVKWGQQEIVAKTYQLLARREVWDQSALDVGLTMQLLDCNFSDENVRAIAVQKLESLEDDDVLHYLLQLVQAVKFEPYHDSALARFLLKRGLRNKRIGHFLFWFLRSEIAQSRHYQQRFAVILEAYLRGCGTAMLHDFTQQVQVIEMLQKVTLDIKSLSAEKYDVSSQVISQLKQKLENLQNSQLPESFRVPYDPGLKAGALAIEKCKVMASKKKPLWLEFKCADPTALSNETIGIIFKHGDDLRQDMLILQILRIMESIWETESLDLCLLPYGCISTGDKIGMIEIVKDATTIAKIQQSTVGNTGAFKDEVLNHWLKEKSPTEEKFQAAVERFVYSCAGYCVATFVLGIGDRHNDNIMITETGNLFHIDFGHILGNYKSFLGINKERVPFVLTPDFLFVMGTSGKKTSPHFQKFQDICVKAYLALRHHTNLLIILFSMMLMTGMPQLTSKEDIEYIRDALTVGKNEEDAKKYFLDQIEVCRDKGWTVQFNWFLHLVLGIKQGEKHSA
The subject of assay [12] is MDA-MB-231. Nature of the assay: Antitumor activity against human MDA-MB-231 cells xenografted in athymic nude mouse assessed as the inhibition of tumor growth at 25 mg/kg, ip administered twice daily for 14 days relative to control. It is filed as functional. Conditions: MDA-MB-231, 336 h, time 14 day, read-out: TGI.
For assay [13], the system named is MDA-MB-231. Nature of the assay: Antitumor activity against human MDA-MB-231 cells xenografted in athymic nude mouse assessed as the inhibition of tumor growth at 65 mg/kg, ip measured at 24 hrs post-dose relative to control. Conditions: MDA-MB-231, 24 h, read-out: TGI. For orientation: A xenograft is tissue or cells of one species grown in another, often human tumour cells in immunodeficient mice.

The next assay relates to HBL. Nature of the assay: Antiproliferative activity against human HBL cells assessed as inhibition of cell growth. It is filed as functional.

T2 sequence (P06239 whole entry, the tested form may be a part): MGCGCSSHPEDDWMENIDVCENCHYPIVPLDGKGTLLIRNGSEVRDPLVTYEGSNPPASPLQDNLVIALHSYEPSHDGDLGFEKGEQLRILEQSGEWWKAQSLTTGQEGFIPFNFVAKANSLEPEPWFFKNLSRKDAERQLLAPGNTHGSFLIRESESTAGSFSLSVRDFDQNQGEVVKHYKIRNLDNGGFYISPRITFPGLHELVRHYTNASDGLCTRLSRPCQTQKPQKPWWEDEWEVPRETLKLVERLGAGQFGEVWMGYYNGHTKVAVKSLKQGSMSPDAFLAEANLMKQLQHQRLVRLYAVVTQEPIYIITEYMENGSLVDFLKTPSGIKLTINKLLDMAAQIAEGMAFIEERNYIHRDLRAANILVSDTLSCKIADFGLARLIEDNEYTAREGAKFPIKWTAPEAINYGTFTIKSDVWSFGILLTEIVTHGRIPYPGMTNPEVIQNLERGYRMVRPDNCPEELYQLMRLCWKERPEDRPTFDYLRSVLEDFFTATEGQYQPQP
Tyrosine-protein kinase Lyn, sequence (P07948 whole entry): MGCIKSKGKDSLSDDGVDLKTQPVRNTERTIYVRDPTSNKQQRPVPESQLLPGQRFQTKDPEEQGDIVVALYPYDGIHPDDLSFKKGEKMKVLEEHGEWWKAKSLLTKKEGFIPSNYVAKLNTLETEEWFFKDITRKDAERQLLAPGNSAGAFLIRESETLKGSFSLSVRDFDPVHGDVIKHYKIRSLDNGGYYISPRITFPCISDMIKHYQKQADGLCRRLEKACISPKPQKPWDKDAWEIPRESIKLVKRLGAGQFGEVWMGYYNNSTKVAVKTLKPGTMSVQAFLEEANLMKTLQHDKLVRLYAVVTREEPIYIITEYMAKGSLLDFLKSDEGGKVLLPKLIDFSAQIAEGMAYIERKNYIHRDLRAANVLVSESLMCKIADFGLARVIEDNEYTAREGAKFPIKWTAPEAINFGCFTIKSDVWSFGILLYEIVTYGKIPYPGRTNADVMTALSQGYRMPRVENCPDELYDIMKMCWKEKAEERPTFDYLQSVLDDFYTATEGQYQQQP
Tyrosine-protein kinase Yes, sequence (P07947 whole entry): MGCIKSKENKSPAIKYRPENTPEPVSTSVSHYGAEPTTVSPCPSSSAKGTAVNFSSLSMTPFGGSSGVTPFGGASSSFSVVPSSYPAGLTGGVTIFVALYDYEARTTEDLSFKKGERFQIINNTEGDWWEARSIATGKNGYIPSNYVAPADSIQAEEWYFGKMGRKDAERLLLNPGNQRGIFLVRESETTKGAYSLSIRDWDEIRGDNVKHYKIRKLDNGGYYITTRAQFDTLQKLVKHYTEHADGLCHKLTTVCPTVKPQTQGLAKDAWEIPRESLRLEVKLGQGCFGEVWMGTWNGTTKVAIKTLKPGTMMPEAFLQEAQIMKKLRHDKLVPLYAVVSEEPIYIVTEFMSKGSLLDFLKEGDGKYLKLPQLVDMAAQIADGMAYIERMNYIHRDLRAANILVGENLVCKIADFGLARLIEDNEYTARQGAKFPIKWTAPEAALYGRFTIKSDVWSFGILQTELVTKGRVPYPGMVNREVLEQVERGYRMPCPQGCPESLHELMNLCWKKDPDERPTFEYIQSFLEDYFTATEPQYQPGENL
Tyrosine-protein kinase Fgr, sequence (P09769 whole entry): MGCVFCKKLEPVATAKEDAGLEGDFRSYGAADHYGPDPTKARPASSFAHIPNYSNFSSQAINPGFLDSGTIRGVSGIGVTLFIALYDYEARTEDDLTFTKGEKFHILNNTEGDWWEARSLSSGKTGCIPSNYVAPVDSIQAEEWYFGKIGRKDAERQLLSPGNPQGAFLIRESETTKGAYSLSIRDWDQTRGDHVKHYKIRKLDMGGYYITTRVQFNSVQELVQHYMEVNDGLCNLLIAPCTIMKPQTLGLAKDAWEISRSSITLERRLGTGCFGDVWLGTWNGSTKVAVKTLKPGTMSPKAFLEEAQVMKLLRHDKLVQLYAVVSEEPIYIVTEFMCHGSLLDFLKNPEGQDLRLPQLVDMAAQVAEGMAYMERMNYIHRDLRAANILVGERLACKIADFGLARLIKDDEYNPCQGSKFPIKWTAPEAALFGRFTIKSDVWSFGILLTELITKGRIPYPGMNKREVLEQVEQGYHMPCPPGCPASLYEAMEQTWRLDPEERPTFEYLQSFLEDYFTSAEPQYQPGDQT

A word on the pIC50: it is the negative decadic logarithm of the IC50, by convention in mol/L. For the molecule `COc1cccc(-c2cn(-c3ccc(CCN4CCC(O)CC4)cc3)c3ncnc(N)c23)c1`, the pIC50 in assay [1] is 6.82.
With `CN1CCN([C@H]2CC[C@H](n3cc(-c4ccc(Oc5ccccc5)cc4)c4c(N)ncnc43)CC2)CC1`, the values for the pIC50 in [2], in assay [3] and in assay [4] were 8.05, > 8.52 and > 8.52, respectively.
For orientation: pKd means the negative decadic logarithm of the Kd, by convention in mol/L. By pKi is commonly meant −log10 of the Ki, conventionally taken in molar units. As for `Nc1ncnc2c1c(-c1ccc(Cl)cc1)nn2-c1cccc(-c2cnnn2Cc2cccc(-c3ccccc3)c2)c1`, the negative logarithm of the Kd (pKd) is 7.07 and 6.80 in [5]; 6.62 in assay [6]; 6.14 in assay [7]. In assay [8], the negative-log Ki (pKi) is 7.36.
For the molecule `CC(C)Oc1ccc(-c2nn([C@H](C)c3oc4ccc(F)cc4c(=O)c3-c3cccc(F)c3)c3ncnc(N)c23)cc1F`, the values for the negative-log Kd (pKd) in [9], in assay [10] and in assay [11] were < 5.00, < 5.00 and < 5.85, respectively.
Turning to `COc1cccc2cc(-c3nc([C@H]4CC[C@H](C(=O)O)CC4)n4ncnc(N)c34)[nH]c12` [OSI-027], the inhibition in vivo at 25 mg/kg in the assay on MDA-MB-231 [12] came to 90%. In addition, the inhibition in vivo at 65 mg/kg in the assay with MDA-MB-231 [13] was 100%.
What is called GI50 is the concentration at which growth is held to half of that of the control. For the molecule `Nc1ncnc2c1c(-c1ccc(Oc3ccccc3)cc1)nn2[C@@H]1CCCN(C(=O)c2cn(CCOCCOCCOCCNc3cccc4c3C(=O)N(C3CCC(=O)NC3=O)C4=O)nn2)C1` (some centres undefined), the GI50 with HBL stood at 28 nM.
